Legend:
Assay type in all cases: in vivo
[1] = test system: Myzus persicae (Green Peach Aphid); assay: Activity against Myzus persicae, mixed population, feeding/residual contact activity, preventive (sunflower leaf discs, Example B1); conditions: foliar, 144 h, 400 ppm, sprayed sunflower leaf discs, 6 days incubation, mixed-age aphids, read-out: activity (mortality)
Procedure: (§1) Activity Against Myzus persicae (Green Peach Aphid)
(§2) (mixed population, feeding/residual contact activity, preventive)
Sunflower leaf discs are placed on agar in a 24-well microtiter plate and sprayed with test solutions. After drying, the leaf discs are infested with an aphid population of mixed ages. After an incubation period of 6 days, samples are checked for mortality and special effects (e.g. phytotoxicity).

[2] = test system: Tetranychus urticae (Two-Spotted Spider Mite); assay: Activity against Tetranychus urticae, mixed population, feeding/residual contact activity, preventive (bean leaf discs, Example B4); conditions: foliar, 192 h, 400 ppm, sprayed bean leaf discs, 8 days, mixed-age mites, read-out: activity (egg, larval and adult mortality)
Excerpt: Activity Against Tetranychus urticae (Two-Spotted Spider Mite)
as §2
Bean leaf discs on agar in 24-well microtiter plates are sprayed with test solutions. After drying, the leaf discs are infested with mite populations of mixed ages. 8 days later, discs are checked for egg mortality, larval mortality, and adult mortality.

[3] = test system: Myzus persicae (Green Peach Aphid); assay: Activity against Myzus persicae, mixed population, feeding activity (sucrose solution through Parafilm, Example B7); conditions: 120 h, in sucrose solution, 5 days after infestation
Excerpt: as §1
(mixed population, feeding activity)
Test compounds are applied with a pipette into 24 well plates and mixed with a sucrose solution. The plates are closed with a stretched Parafilm. A plastic stencil with 24 holes is placed onto the plate and infested pea seedlings are placed directly on the Parafilm. The infested plate is closed with a gel blotting paper and another plastic stencil, and then turned upside down. 5 days after infestation the samples are checked for mortality.

[4] = test system: Thrips tabaci (Onion Thrips); assay: Activity against Thrips tabaci, mixed population, feeding/residual contact activity, preventive (sunflower leaf discs, Example B3); conditions: foliar, 144 h, sprayed sunflower leaf discs, 6 days incubation, mixed-age thrips
Procedure: Activity Against Thrips tabaci (Onion Thrips)
as §2
Sunflower leaf discs are placed on agar in a 24-well microtiter plate and sprayed with test solutions. After drying, the leaf discs are infested with a thrips population of mixed ages. After an incubation period of 6 days, samples are checked for mortality and special effects (e.g. phytotoxicity).

[5] = test system: Plutella xylostella (Diamond Back Moth); assay: Activity against Plutella xylostella, larvicide, feeding/residual contact activity, preventive (artificial diet MTP, Example B5); conditions: 120 h, 400 ppm, artificial diet, L2 larvae, 5 days incubation, read-out: activity (larval mortality, antifeedant, growth regulation)
Procedure: Activity Against Plutella xylostella (Diamond Back Moth)
(§3) (larvicide, feeding/residual contact activity, preventive)
24-well microtiter plate (MTP) with artificial diet is treated with test solutions by pipetting. After drying, the MTP's are infested with larvae (L2)(10-15 per well). After an incubation period of 5 days, samples are checked for larval mortality, antifeedant and growth regulation.

[6] = test system: Diabrotica balteata (Corn Root Worm); assay: Activity against Diabrotica balteata, larvicide, feeding/residual contact activity, preventive (artificial diet MTP, Example B6); conditions: 120 h, L2 larvae, 5 days incubation, read-out: activity (larval mortality, antifeedant, growth regulation)
Procedure: Activity Against Diabrotica balteata (Corn Root Worm)
as §3
24-well microtiter plate (MTP) with artificial diet is treated with test solutions by pipetting. After drying, the MTP's are infested with larvae (L2)(6-10 per well). After an incubation period of 5 days, samples are checked for larval mortality, antifeedant and growth regulation.

Cc1cc(-c2ccc(F)cc2)cc(C)c1C1C(=O)CC(CC2CCOCC2)C1=O (stereo not shown) [Compound T63]
> 80%: mortality at 400 ppm [1] | mortality at 400 ppm [2] | mortality at 25 ppm [3]

Cc1cc(C)c(C2C(=O)C/C(=C\C3CCOC3)C2=O)c(C)c1 (stereo not shown) [Compound T17]
> 80%: mortality at 400 ppm [1] | mortality at 400 ppm [4] | mortality at 400 ppm [2] | mortality at 400 ppm [5] | mortality at 400 ppm [6]

Cc1cc(C)c(C2=C(OC(=O)c3ccccc3)CC(CC3CCOCC3)C2=O)c(C)c1 (stereo not shown) [Compound P44]
> 80%: mortality at 400 ppm [1] | mortality at 400 ppm [4] | mortality at 400 ppm [2] | mortality at 400 ppm [5] | mortality at 400 ppm [6]

Cc1cc(C)c(C2C(=O)C/C(=C\C3CCCOC3)C2=O)c(C)c1 (stereo not shown) [Compound T14]
> 80%: mortality at 400 ppm [1] | mortality at 400 ppm [4] | mortality at 400 ppm [2] | mortality at 400 ppm [5] | mortality at 25 ppm [3]

Cc1cc(-c2ccc(Cl)cc2)cc(C)c1C1C(=O)C/C(=C\C2CCOCC2)C1=O (stereo not shown) [Compound T62]
> 80%: mortality at 400 ppm [1] | mortality at 400 ppm [2] | mortality at 400 ppm [5] | mortality at 25 ppm [3]

Cc1cc(-c2ccc(F)cc2)cc(C)c1C1C(=O)C/C(=C\C2CCOCC2)C1=O (stereo not shown) [Compound T61]
> 80%: mortality at 400 ppm [1] | mortality at 400 ppm [2] | mortality at 25 ppm [3]

COc1ccc(C(=O)OC2=C(c3c(C)cc(C)cc3C)C(=O)CC2CC2CCOC2)cc1 (stereo not shown) [Compound P71]
> 80%: mortality at 400 ppm [1] | mortality at 400 ppm [2] | mortality at 400 ppm [6]

— patent US20130053385A1, “METHOD OF COMBATING AND CONTROLLING PESTS” (SYNGENTA LIMITED, priority 2009, published 2013)
